Data on five compounds can be found in patent US10766914B2, “DNA alkylating agents” (OBI PHARMA, INC., priority 2015, dated 2020).

The nature of data set [1]: Example 4-E body weight change, 786-O xenograft study. The data set is classed as in vivo, female nude mice (nu/nu). The note with it: 40 mpk, qd × 5/wk × 2. The procedure: Cells were mixed with Matrigel (50% with exception for 30% in the H460) and 0.2 ml per mouse were subcutaneously implanted to the flank area of the animals. When tumor size reached 100-150 250 mm3, mice were randomized into experimental or vehicle groups with 10 mice/group and treatment was started (Day 1). The tested compounds were formulated in 5% DMSO in D5W. […] Tumor growth and body weight were measured twice a week. Tumor volume was calculated as (length×width2)/2. Drug efficacy was assessed as Tumor Growth Inhibition (TGI) and Tumor Growth Delay (TGD). TGI was defined as (1−ΔT/ΔC)×100, where ΔT/ΔC presented the ratio of the change in mean (or median, if variation within the group was relatively large) tumor volume of the treated group and of the control group. TGD was calculated as the extra days for the treated tumor to reach 500 mm3 or 1000 mm3 as compared to the control group. Animals were culled when individual tumor size reached over 2000 mm3 or mean tumor volume exceeded 1000 mm3 in the group. Data are expressed as the mean±SEM. One-way analysis of variance with Dunnett post comparison test (GraphPad Prism 4) or two-tailed student's t-test were used for analysis. A P level <0.05 was considered statistically significant.
The compound TH-2768 was tested in a renal cell carcinoma 786-O model. The compound was dosed as follows. […]

The test system of data set [2] is renal cell carcinoma 786-O xenograft. In words: Example 4-E antitumor efficacy, renal cell carcinoma 786-O xenograft model. The settings on record: 40 mpk, qd × 5/wk × 2. The data set is classed as in vivo, female nude mice (nu/nu). From the text: (§1) Specific pathogen-free homozygous female nude mice (nu/nu, Charles River Laboratories) were used. Mice were given food and water ad libitum and housed in microisolator cages. Four to six week old animals were identified by microchips (Locus Technology, Manchester, Md., USA) at the time of the experiments. All animal studies were approved by the Institutional Animal Care and Use Committee at Threshold Pharmaceuticals, Inc.
(§2) All cell lines were from the American Type Culture Collection (ATCC, Rockville, Md., USA).
Cells were mixed with Matrigel (50% with exception for 30% in the H460) and 0.2 ml per mouse were subcutaneously implanted to the flank area of the animals. When tumor size reached 100-150 250 mm3, mice were randomized into experimental or vehicle groups with 10 mice/group and treatment was started (Day 1). The tested compounds were formulated in 5% DMSO in D5W. […] Tumor growth and body weight were measured twice a week. Tumor volume was calculated as (length×width2)/2. Drug efficacy was assessed as Tumor Growth Inhibition (TGI) and Tumor Growth Delay (TGD). […] TGD was calculated as the extra days for the treated tumor to reach 500 mm3 or 1000 mm3 as compared to the control group. […] Data are expressed as the mean±SEM. […]

Data set [3] can be described thus: Example 4-A body weight change, H460 xenograft study. Type of data set: in vivo, female nude mice (nu/nu). The procedure:
Cells were mixed with Matrigel (50% with exception for 30% in the H460) and 0.2 ml per mouse were subcutaneously implanted to the flank area of the animals. When tumor size reached 100-150 250 mm3, mice were randomized into experimental or vehicle groups with 10 mice/group and treatment was started (Day 1). The tested compounds were formulated in 5% DMSO in D5W. The regimens employed in the examples include IP, QD×5/wk (5 days on, 2 days off) as one cycle, for a total of 2 cycles; IP, once; IP, weekly for total 3 weeks; and IV, weekly for 3 weeks. Tumor growth and body weight were measured twice a week. Tumor volume was calculated as (length×width2)/2. Drug efficacy was assessed as Tumor Growth Inhibition (TGI) and Tumor Growth Delay (TGD). TGI was defined as (1−ΔT/ΔC)×100, where ΔT/ΔC presented the ratio of the change in mean (or median, if variation within the group was relatively large) tumor volume of the treated group and of the control group. TGD was calculated as the extra days for the treated tumor to reach 500 mm3 or 1000 mm3 as compared to the control group. Animals were culled when individual tumor size reached over 2000 mm3 or mean tumor volume exceeded 1000 mm3 in the group. Data are expressed as the mean±SEM. One-way analysis of variance with Dunnett post comparison test (GraphPad Prism 4) or two-tailed student's t-test were used for analysis. […]

Data set [4] can be described thus: Example 4-B body weight change, A549 xenograft study. Type of data set: in vivo, female nude mice (nu/nu). As for the experimental part:
(§3) Cells were mixed with Matrigel (50% with exception for 30% in the H460) and 0.2 ml per mouse were subcutaneously implanted to the flank area of the animals. When tumor size reached 100-150 250 mm3, mice were randomized into experimental or vehicle groups with 10 mice/group and treatment was started (Day 1). The tested compounds were formulated in 5% DMSO in D5W. The regimens employed in the examples include IP, QD×5/wk (5 days on, 2 days off) as one cycle, for a total of 2 cycles; IP, once; IP, weekly for total 3 weeks; and IV, weekly for 3 weeks. Tumor growth and body weight were measured twice a week. Tumor volume was calculated as (length×width2)/2. Drug efficacy was assessed as Tumor Growth Inhibition (TGI) and Tumor Growth Delay (TGD). TGI was defined as (1−ΔT/ΔC)×100, where ΔT/ΔC presented the ratio of the change in mean (or median, if variation within the group was relatively large) tumor volume of the treated group and of the control group. TGD was calculated as the extra days for the treated tumor to reach 500 mm3 or 1000 mm3 as compared to the control group. Animals were culled when individual tumor size reached over 2000 mm3 or mean tumor volume exceeded 1000 mm3 in the group. Data are expressed as the mean±SEM. One-way analysis of variance with Dunnett post comparison test (GraphPad Prism 4) or two-tailed student's t-test were used for analysis. A P level <0.05 was considered statistically significant.
Antitumor effects of compounds provided herein were determined on A 549 non-small cell lung xenograft model in comparison with a chemotherapy agent, thiotepa. The dosing was as follows. Daily IP dosing: 5 doses then 2 days off then 5 more doses starting at 110 mm^3 tumors on day 1 (10 animals per group average tumor volume). The antitumor effects and the safety of administration are graphically illustrated below.

The subject of data set [5] is A 549 non-small cell lung xenograft. In words: Example 4-B antitumor efficacy, ectopic A549 NSCLC xenograft model. Type of data set: in vivo, female nude mice (nu/nu).
Text: as §1, §2, §3
The dosing was as follows. Daily IP dosing: 5 doses then 2 days off then 5 more doses starting at 110 mm^3 tumors on day 1 (10 animals per group average tumor volume).
Doses were selected by first doing a toxicity test in CD1 mice as described above. The compounds were tested against Thio-tepa.

Data set [6] has as its system A375 melanoma human tumor xenograft. As to the kind of experiment: Example 4-C antitumor efficacy, ectopic A375 melanoma xenograft model. The data set is classed as in vivo, female nude mice (nu/nu). The note with it: qd × 5 × 2, ip.
Text: as §1, §2, §3
his study employed an A375 melanoma human tumor xenograft model and various compounds provided herein were compared to thiotepa and the approved anti melanoma drug, nab-Paclitaxel.

A short description of data set [7]: Example 4-C body weight change, A375 xenograft study. The note with it: 40 mpk, qd × 5 × 2, ip. Type of data set: in vivo, female nude mice (nu/nu). The procedure:
as §3
his study employed an A375 melanoma human tumor xenograft model and various compounds provided herein were compared to thiotepa and the approved anti melanoma drug, nab-Paclitaxel. The antitumor effects and the safety of administration are graphically illustrated below.

The test system of data set [8] is H460 non-small cell lung cancer xenograft tumor. In words: Example 4-A antitumor efficacy, ectopic H460 NSCLC xenograft model. The note with it: for TGD 500 / TGD 1000 / TGI: H460. Type of data set: in vivo, female nude mice (nu/nu).
Text: as §1, §2, §3
Compounds provided herein were tested in vivo human tumor xenograft models and compared to standard chemotherapeutic agents such as gemcitabine, nab-paclitaxel. […] The compound was dosed as follows: daily IP dosing: 5 doses then 2 days off then 5 more doses starting at 100 mm^3 tumors on day 1 (10 animals per group median tumor volume). It is contemplated that in some embodiments, the compounds provided herein are activated by human and not by mouse enzymes. The antitumor effects and the safety of administration are graphically illustrated in FIGS. 3-20 below.

The subject of the next data set is H460 cells. As to the kind of experiment: Proliferation assay in H460 cells (2 hr exposure, AlamarBlue). The data set is classed as cell-based, human. The settings on record: Homo sapiens, NCI-H460, 2 hrs exposure, wash, 70 hrs growth, read-out: IC 50 in proliferation assay in H460 cells. An outline of the steps:
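H460 cells seeded at 4×10^3/well, grown 24 h, then exposed to compound for 2 h at 37 °C. Drug was washed off and cells were regrown 70 h in fresh medium. Viable cells were read by AlamarBlue, and IC50 was taken as the concentration giving 50% growth inhibition.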

Data set [9] deals with H460 NSCLC xenograft. As to the kind of experiment: Example 4-G antitumor efficacy, ectopic H460 NSCLC xenograft model. Type of data set: in vivo, female nude mice (nu/nu). The settings on record: ip, Q7D × 3.
Text: as §1, §2, §3
(§4) The compounds TH-3040 and TH-3045 were tested in a H460 model. The compounds were dosed as follows. A dose-dependent TH-3040 or TH-3045 was given IP weekly for 3 weeks, from 5 to 45 mg/kg starting at 100 mm^3 tumors on day 1 (10 animals per group average tumor volume). The antitumor effects and the safety of administration are graphically illustrated below.

The nature of data set [10]: Example 4-G body weight change, H460 xenograft study. The settings on record: ip, Q7D × 3. Type of data set: in vivo, female nude mice (nu/nu). As for the experimental part: as §3, §4
The test system of data set [11] is H460 NSCLC xenograft. In words: Example 4-I antitumor efficacy, ectopic H460 NSCLC xenograft model. The settings on record: 10 mg/kg, iv, Q7D × 3. The data set is classed as in vivo, female nude mice (nu/nu).
Text: as §1, §2, §3
(§5) The compound TH-2870 was tested in a H460 model. The compound was dosed follows. 1.5, 5 or 15 mg/kg, IV, weekly for 3 weeks at 250 mm^3 tumors on day 1 (10 animals per group average tumor volume), comparing with docetaxel. The antitumor effects and the safety of administration are graphically illustrated below.

The nature of data set [12]: Example 4-I body weight change, H460 xenograft study. The settings on record: 10 mg/kg, iv, Q7D × 3. Type of data set: in vivo, female nude mice (nu/nu). As for the experimental part:
as §3, §5

pIC50: −log10 of the molar value.

For `CCN(CC)CCNC(=O)c1c(C)[nH]c(/C=C2\C(=O)Nc3ccc(F)cc32)c1C` [Sunitinib, sunitinib, reference compound], the “Max. BW loss %” value in data set [1] (po) was found to be 0.3%. The TGI in data set [2] (po) is 67.8%.
As to `CC(OP(=O)(N1CC1)N1CC1)c1ccc([N+](=O)[O-])c(Oc2ccccc2)c1` (centres unmarked) [Compound 2768], the “Max. BW loss %” value in [3] (40 mg/kg ip QD × 5/wk × 2 wks) amounted to 4.0%; in data set [4] (40 mg/kg ip QD × 5/wk × 2 wks), 0.0%; in data set [4] (80 mg/kg ip QD × 5/wk × 2 wks) it was 4.8%; in [7] it was 0%; in data set [1] (ip), 0.0%. Further, the “TGD 500” value in data set [5] (40 mg/kg ip QD × 5/wk × 2 wks) is given as over 72 days; in data set [5] (80 mg/kg ip QD × 5/wk × 2 wks), over 72 days; in data set [6] (40 mpk) it was 7 days; in [8] (40 mg/kg ip QD × 5/wk × 2 wks) it was 56 days. The TGI in data set [5] (40 mg/kg ip QD × 5/wk × 2 wks) was 100.6%; in [5] (80 mg/kg ip QD × 5/wk × 2 wks) it was 104.4%; in data set [8] (40 mg/kg ip QD × 5/wk × 2 wks) it was 104.1%; in data set [2] (ip) it was 73.0%. Further, the “TGD 1000” value in [6] (40 mpk) was 7 days; in data set [8] (40 mg/kg ip QD × 5/wk × 2 wks), 62 days. The inhibition in vivo at 40 mg/kg in data set [6] (Mus musculus, A-375, 40 mpk, read-out: TGI) was found to be 36.7%. Further, the “antitumor effect as a monotherapy” value in [8] (H460 study, versus gemcitabine) is reported as “superior to the effect of gemcitabine”. The pIC50 in the data set on H460 cells was 7.40.
With `C[C@@H](OP(=O)(N1CC1)N1CC1)c1ccc([N+](=O)[O-])c(Oc2ccc(-c3ccccc3)cc2)c1` [Compound 3045], the TGD 500 with H460 NSCLC xenograft [9] (5 mpk) worked out at 48 days; in the data set on H460 NSCLC xenograft [9] (15 mpk), 70 days; in the data set with H460 NSCLC xenograft [9] (45 mpk), 86 days. In addition, the values for the TGI in the data set with H460 NSCLC xenograft [9] (5 mpk), in the data set with H460 NSCLC xenograft [9] (15 mpk) and in the data set on H460 NSCLC xenograft [9] (45 mpk) were 104.0%, 104.8% and 106.3%, respectively. The figures for the “Max BW loss” value in data set [10] (5 mpk), in data set [10] (15 mpk) and in data set [10] (45 mpk) were 0.0%, 2.8% and 2.4%, respectively. The pIC50 in the data set on H460 cells was 8.40.
In the case of `Nc1ccn([C@@H]2O[C@H](CO)[C@@H](O)C2(F)F)c(=O)n1` [GEM, gemcitabine, reference compound], in data set [3] (60 mg/kg ip Q3D × 5), the “Max. BW loss %” value turned out to be 4.9%. In addition, in [8] (60 mg/kg ip Q3D × 5), the “TGD 500” value turned out to be 7 days, the “TGD 1000” value worked out at 7 days and the TGI was 42.7%.
As for `CC(=O)O[C@@]12CO[C@@H]1C[C@H](O)[C@@]1(C)C(=O)[C@H](O)C3=C(C)[C@@H](OC(=O)[C@H](O)[C@@H](NC(=O)OC(C)(C)C)c4ccccc4)C[C@@](O)([C@@H](OC(=O)c4ccccc4)[C@H]21)C3(C)C` [Doectaxel, docetaxel, reference compound], in the data set with H460 NSCLC xenograft [11] (H460), the “TGD500, Days (vs. vehicle)” value turned out to be 6 days and the “TGD1000, Days (vs. vehicle)” value is 9 days. Besides, in the data set on H460 NSCLC xenograft [11] (H460, 250 mm3 tumors on day 1), the TGI was 51.3%. Also, in data set [12], the “Max. BW loss %” value was determined as 12.4%.
